For the experiment, the system named is MV-4-11 cells. The experiment in a line: Gene expression microarray analysis (Affymetrix PrimeView) and GSEA. It is filed as cell-based, human. The arrangement: RFU PODN (11730768_x_at) / Fold change /veh PODN (11730768_x_at) / RFU LINC00158 (11744669_a_at) / Fold change /veh LINC00158 (11744669_a_at) / RFU DUSP10 (11751237_a_at) / Fold change /veh DUSP10 (11751237_a_at) / RFU ID3 (11757404_x_at) / Fold change /veh ID3 (11757404_x_at) / RFU PLEKHG5 (11737974_s_at) / Fold change /veh PLEKHG5 (11737974_s_at) / RFU LRRC4B (11730491_at) / Fold change /veh LRRC4B (11730491_at) / RFU GIMAP4 (11747438_a_at) / Fold change /veh GIMAP4 (11747438_a_at) / RFU KRT8 (11758183_x_at) / Fold change /veh KRT8 (11758183_x_at) / RFU CNN1 (11734310_a_at) / Fold change /veh CNN1 (11734310_a_at) / RFU VPS37D (11726825_at) / Fold change /veh VPS37D (11726825_at) / RFU C10orf10 (11716522_x_at) / Fold change /veh C10orf10 (11716522_x_at) / RFU KIR2DL2 /// KIR2DL4 /// KIR2DL5A /// KIR2DL5B /// KIR2DS1 /// KIR2DS2 /// KIR2DS3 /// KIR2DS4 /// KIR3DL3 /// KIR3DL3 /// KIR3DS1 (11738374_at) / Fold change /veh KIR2DL2 /// KIR2DL4 /// KIR2DL5A /// KIR2DL5B /// KIR2DS1 /// KIR2DS2 /// KIR2DS3 /// KIR2DS4 /// KIR3DL3 /// KIR3DL3 /// KIR3DS1 (11738374_at) / RFU C1QL1 (11718748_at) / Fold change /veh C1QL1 (11718748_at) / RFU TMPRSS4 (11747572_a_at) / Fold change /veh TMPRSS4 (11747572_a_at) / RFU HAMP (11756126_x_at) / Fold change /veh HAMP (11756126_x_at) / RFU RNFT2 (11725882_a_at) / Fold change /veh RNFT2 (11725882_a_at) / RFU NR4A2 (11747474_a_at) / Fold change /veh NR4A2 (11747474_a_at) / RFU ABCC12 (11746883_a_at) / Fold change /veh ABCC12 (11746883_a_at) / RFU TMEM136 (11760407_x_at) / Fold change /veh TMEM136 (11760407_x_at) / RFU CLDN22 /// WWC2 (11732394_at) / Fold change /veh CLDN22 /// WWC2 (11732394_at) / RFU HLA-DPB1 (11760878_x_at) / Fold change /veh HLA-DPB1 (11760878_x_at) / RFU SPINT1 (11716480_a_at) / Fold change /veh SPINT1 (11716480_a_at) / RFU GAP43 (11754022_s_at) / Fold change /veh GAP43 (11754022_s_at) / RFU A4GNT (11735810_at) / Fold change /veh A4GNT (11735810_at) / RFU PRB3 (11715151_x_at) / Fold change /veh PRB3 (11715151_x_at) / RFU TUBB4B (11761932_at) / Fold change /veh TUBB4B (11761932_at) / RFU CAPN14 (11732068_a_at) / Fold change /veh CAPN14 (11732068_a_at) / RFU TMCC2 (11721928_a_at) / Fold change /veh TMCC2 (11721928_a_at) / RFU IRGQ (11745062_a_at) / Fold change /veh IRGQ (11745062_a_at) / RFU FAM174B (11720279_a_at) / Fold change /veh FAM174B (11720279_a_at) / RFU TMPRSS4 (11748680_a_at) / Fold change /veh TMPRSS4 (11748680_a_at) / RFU FAM212B (11763350_a_at) / Fold change /veh FAM212B (11763350_a_at) / RFU PLEKHG5 (11743358_a_at) / Fold change /veh PLEKHG5 (11743358_a_at) / RFU ZSCAN30 (11745921_a_at) / Fold change /veh ZSCAN30 (11745921_a_at) / RFU CMKLR1 (11741424_a_at) / Fold change /veh CMKLR1 (11741424_a_at) / RFU LOC101060620 /// MAPK8IP1 (11723275_at) / Fold change /veh LOC101060620 /// MAPK8IP1 (11723275_at) / RFU SPTSSB (11747773_x_at) / Fold change /veh SPTSSB (11747773_x_at) / RFU PRSS12 (11739890_at) / Fold change /veh PRSS12 (11739890_at) / RFU BIN1 (11741810_x_at) / Fold change /veh BIN1 (11741810_x_at) / RFU WNT11 (11732464_a_at) / Fold change /veh WNT11 (11732464_a_at) / RFU C10orf10 (11716521_a_at) / Fold change /veh C10orf10 (11716521_a_at) / RFU C5orf56 (11738089_at) / Fold change /veh C5orf56 (11738089_at) / RFU CYB561 (11721691_x_at) / Fold change /veh CYB561 (11721691_x_at) / RFU ANKRD19P (11752326_a_at) / Fold change /veh ANKRD19P (11752326_a_at) / RFU OR2T12 /// OR2T33 /// OR2T8 (11738714_s_at) / Fold change /veh OR2T12 /// OR2T33 /// OR2T8 (11738714_s_at) / RFU VCAN (11748164_a_at) / Fold change /veh VCAN (11748164_a_at) / RFU JSRP1 (11732532_at) / Fold change /veh JSRP1 (11732532_at) / RFU KRTAP10-11 (11738290_x_at) / Fold change /veh KRTAP10-11 (11738290_x_at) / RFU MYO3A (11730013_a_at) / Fold change /veh MYO3A (11730013_a_at) / RFU EBF3 (11725865_a_at) / Fold change /veh EBF3 (11725865_a_at) / RFU CAMK2N1 (11719241_x_at) / Fold change /veh CAMK2N1 (11719241_x_at) / RFU C5orf56 (11738088_a_at) / Fold change /veh C5orf56 (11738088_a_at) / RFU OLFML3 (11715873_a_at) / Fold change /veh OLFML3 (11715873_a_at) / RFU LOC100653217 /// NTM (11731650_a_at) / Fold change /veh LOC100653217 /// NTM (11731650_a_at) / RFU MAPK11 (11762145_a_at) / Fold change /veh MAPK11 (11762145_a_at) / RFU FIZ1 (11724087_x_at) / Fold change /veh FIZ1 (11724087_x_at) / RFU OASL (11726364_x_at) / Fold change /veh OASL (11726364_x_at) / RFU SOX15 (11748057_x_at) / Fold change /veh SOX15 (11748057_x_at) / RFU CD79A (11719716_a_at) / Fold change /veh CD79A (11719716_a_at) / RFU HIST1H1D (11736915_at) / Fold change /veh HIST1H1D (11736915_at) / RFU CASKIN2 (11723855_a_at) / Fold change /veh CASKIN2 (11723855_a_at) / RFU LOC730098 (11760151_x_at) / Fold change /veh LOC730098 (11760151_x_at) / RFU OR4N2 (11742367_at) / Fold change /veh OR4N2 (11742367_at) / RFU PRRT2 (11749266_a_at) / Fold change /veh PRRT2 (11749266_a_at) / RFU SNX32 (11753110_a_at) / Fold change /veh SNX32 (11753110_a_at) / RFU CDHR5 (11726645_a_at) / Fold change /veh CDHR5 (11726645_a_at) / RFU RCAN1 (11760418_a_at) / Fold change /veh RCAN1 (11760418_a_at) / RFU FAM167A (11723789_a_at) / Fold change /veh FAM167A (11723789_a_at) / RFU FAM26E (11764081_at) / Fold change /veh FAM26E (11764081_at) / RFU ISYNA1 (11749810_s_at) / Fold change /veh ISYNA1 (11749810_s_at) / RFU ACY1 (11761880_at) / Fold change /veh ACY1 (11761880_at) / RFU 11764098_at / Fold change /veh 11764098_at / RFU SAMD14 (11745864_x_at) / Fold change /veh SAMD14 (11745864_x_at) / RFU NPB (11741838_a_at) / Fold change /veh NPB (11741838_a_at) / RFU TMPRSS6 (11731388_a_at) / Fold change /veh TMPRSS6 (11731388_a_at) / RFU KRTAP10-2 (11738614_at) / Fold change /veh KRTAP10-2 (11738614_at) / RFU ARHGAP8 /// PRR5-ARHGAP8 (11727945_x_at) / Fold change /veh ARHGAP8 /// PRR5-ARHGAP8 (11727945_x_at) / RFU KRTAP5-7 /// NADSYN1 (11734609_at) / Fold change /veh KRTAP5-7 /// NADSYN1 (11734609_at) / RFU RASL12 (11751679_a_at) / Fold change /veh RASL12 (11751679_a_at) / RFU CDKN2B (11736163_a_at) / Fold change /veh CDKN2B (11736163_a_at) / RFU PRF1 (11729649_at) / Fold change /veh PRF1 (11729649_at) / RFU, ZNF638 /// ZNF638-IT1 / Fold change vs veh, ZNF638 /// ZNF638-IT1 / RFU, PANK3 / Fold change vs veh, PANK3 / RFU, SH3YL1 / Fold change vs veh, SH3YL1 / RFU, ZEB2 / Fold change vs veh, ZEB2 / RFU, NRIP1 / Fold change vs veh, NRIP1 / RFU, PTTG1IP / Fold change vs veh, PTTG1IP / RFU, CAPN2 / Fold change vs veh, CAPN2 / RFU, MED14 / Fold change vs veh, MED14 / RFU, SNORA58 / Fold change vs veh, SNORA58 / RFU, C1orf63 / Fold change vs veh, C1orf63 / RFU, LRRFIP1 / Fold change vs veh, LRRFIP1 / RFU, NDUFAF7 / Fold change vs veh, NDUFAF7 / RFU, SLC12A2 / Fold change vs veh, SLC12A2 / RFU, IBTK / Fold change vs veh, IBTK / RFU, ESF1 / Fold change vs veh, ESF1 / Fold change vs veh, TMEM50B / RFU, TAOK1 / Fold change vs veh, TAOK1 / RFU, ACBD3 / Fold change vs veh, ACBD3 / RFU, TMA16 / Fold change vs veh, TMA16 / RFU, RWDD3 / Fold change vs veh, RWDD3 / RFU, BCAT1 / Fold change vs veh, BCAT1 / RFU, EDEM3 / Fold change vs veh, EDEM3 / RFU, TMEM33 / Fold change vs veh, TMEM33 / RFU, WDR75 / Fold change vs veh, WDR75 / RFU, AHCTF1 / Fold change vs veh, AHCTF1 / RFU, TFRC / Fold change vs veh, TFRC / RFU, ZDHHC17 / Fold change vs veh, ZDHHC17 / RFU, NOM1 / Fold change vs veh, NOM1 / RFU, ARL8B / Fold change vs veh, ARL8B / RFU, ZBTB11 / Fold change vs veh, ZBTB11 / RFU, TAMM41 / Fold change vs veh, TAMM41 / RFU, KIAA1704 /// LOC100996395 / Fold change vs veh, KIAA1704 /// LOC100996395 / RFU, ING1 / Fold change vs veh, ING1 / RFU, TRMT61B / Fold change vs veh, TRMT61B / RFU, FUBP3 / Fold change vs veh, FUBP3 / RFU, TP53 / Fold change vs veh, TP53 / RFU, TNKS2 / Fold change vs veh, TNKS2 / RFU, ZFP14 / Fold change vs veh, ZFP14 / RFU, ACTR2 / Fold change vs veh, ACTR2 / RFU, PPP3R1 / Fold change vs veh, PPP3R1 / RFU, PIK3R1 / Fold change vs veh, PIK3R1 / RFU, HNRNPA1 / Fold change vs veh, HNRNPA1 / RFU, RNF170 / Fold change vs veh, RNF170 / RFU, ZNF28 / Fold change vs veh, ZNF28 / RFU, RNGTT / Fold change vs veh, RNGTT / RFU, OGT / Fold change vs veh, OGT / RFU, BRD1 / Fold change vs veh, BRD1 / RFU, MARS / Fold change vs veh, MARS / RFU, ZNF655 / Fold change vs veh, ZNF655 / RFU, FAHD1 / Fold change vs veh, FAHD1 / RFU, BDP1 / Fold change vs veh, BDP1 / RFU, LRRCC1 / Fold change vs veh, LRRCC1 / RFU, ARID1A / Fold change vs veh, ARID1A / RFU, ZNF146 / Fold change vs veh, ZNF146 / RFU, ZNF330 / Fold change vs veh, ZNF330 / RFU, GPN3 / Fold change vs veh, GPN3 / RFU, C9orf123 / Fold change vs veh, C9orf123 / RFU, N4BP2L2 / Fold change vs veh, N4BP2L2 / RFU, ARFIP1 / Fold change vs veh, ARFIP1 / RFU, FAM179B / Fold change vs veh, FAM179B / RFU, BCL10 / Fold change vs veh, BCL10 / RFU, UHRF1BP1L / Fold change vs veh, UHRF1BP1L / RFU, BET1 / Fold change vs veh, BET1 / RFU, CNOT2 / Fold change vs veh, CNOT2 / RFU, ZNF268 / Fold change vs veh, ZNF268 / Fold change vs veh, ZNF507 / RFU, DGCR2 / Fold change vs veh, DGCR2 / RFU, WDSUB1 / Fold change vs veh, WDSUB1 / Fold change vs veh, HSP90B1 /// MIR3652 / RFU, ADSS / Fold change vs veh, ADSS / RFU, GK / Fold change vs veh, GK / RFU, ZNF148 / Fold change vs veh, ZNF148 / RFU, TAF9 / Fold change vs veh, TAF9 / RFU, SLC1A5 / Fold change vs veh, SLC1A5 / RFU, SLMO2 / Fold change vs veh, SLMO2 / RFU, ABCC4 / Fold change vs veh, ABCC4 / RFU, LOC101060439 /// RAP1B / Fold change vs veh, LOC101060439 /// RAP1B / RFU, RFX7 / Fold change vs veh, RFX7 / RFU, GTPBP10 / Fold change vs veh, GTPBP10 / RFU, CNEP1R1 / Fold change vs veh, CNEP1R1 / RFU, BIVM-ERCC5 /// ERCC5 / Fold change vs veh, BIVM-ERCC5 /// ERCC5 / RFU, ILF3 / Fold change vs veh, ILF3 / RFU 11762660_at / Fold change /veh 11762660_at / RFU VCAN (11757783_s_at) / Fold change /veh VCAN (11757783_s_at) / RFU DDX43 (11728927_at) / Fold change /veh DDX43 (11728927_at) / RFU KRT8 (11758188_x_at) / Fold change /veh KRT8 (11758188_x_at) / RFU NKD1 (11759106_at) / Fold change /veh NKD1 (11759106_at) / RFU SRD5A1 (11742802_a_at) / Fold change /veh SRD5A1 (11742802_a_at) / RFU TPSAB1 /// TPSB2 (11721975_s_at) / Fold change /veh TPSAB1 /// TPSB2 (11721975_s_at) / RFU GSTM3 (11746129_a_at) / Fold change /veh GSTM3 (11746129_a_at) / RFU IL23R (11737362_x_at) / Fold change /veh IL23R (11737362_x_at) / RFU TMEM51 (11727254_a_at) / Fold change /veh TMEM51 (11727254_a_at) / RFU PIWIL2 (11732686_x_at) / Fold change /veh PIWIL2 (11732686_x_at) / RFU ORM1 (11744905_x_at) / Fold change /veh ORM1 (11744905_x_at) / RFU CCDC152 (11743942_at) / Fold change /veh CCDC152 (11743942_at) / RFU ECM1 (11717891_a_at) / Fold change /veh ECM1 (11717891_a_at) / RFU IL23R (11748794_a_at) / Fold change /veh IL23R (11748794_a_at) / RFU TNFAIP8L3 (11732012_x_at) / Fold change /veh TNFAIP8L3 (11732012_x_at) / RFU MBOAT4 (11741988_at) / Fold change /veh MBOAT4 (11741988_at) / RFU 11764193_at / Fold change /veh 11764193_at / RFU TMEM53 (11763286_at) / Fold change /veh TMEM53 (11763286_at) / RFU MAGEB2 (11727129_at) / Fold change /veh MAGEB2 (11727129_at) / RFU TMEM200A (11744735_a_at) / Fold change /veh TMEM200A (11744735_a_at) / RFU CCDC152 (11751479_a_at) / Fold change /veh CCDC152 (11751479_a_at) / RFU FAM211A (11726209_a_at) / Fold change /veh FAM211A (11726209_a_at) / RFU RGS16 (11746705_a_at) / Fold change /veh RGS16 (11746705_a_at) / RFU VCAN (11755009_s_at) / Fold change /veh VCAN (11755009_s_at) / RFU RHOB (11743442_s_at) / Fold change /veh RHOB (11743442_s_at) / RFU RGS16 (11720943_a_at) / Fold change /veh RGS16 (11720943_a_at) / RFU RGS16 (11720944_at) / Fold change /veh RGS16 (11720944_at) / RFU, VPS4B / Fold change vs veh, VPS4B / RFU, CREB1 / Fold change vs veh, CREB1 / RFU, DNAJC13 / Fold change vs veh, DNAJC13 / RFU, GNAQ / Fold change vs veh, GNAQ / RFU, CDK5R1 / Fold change vs veh, CDK5R1 / RFU, ZRANB3 / Fold change vs veh, ZRANB3 / RFU, CUL4A / Fold change vs veh, CUL4A / RFU, CCNY / Fold change vs veh, CCNY / RFU, UFL1 / Fold change vs veh, UFL1 / RFU, COG3 / Fold change vs veh, COG3 / RFU, DIAPH2 / Fold change vs veh, DIAPH2 / RFU, SKA2 / Fold change vs veh, SKA2 / RFU, AFF3 / Fold change vs veh, AFF3 / RFU, LMF1 / Fold change vs veh, LMF1 / RFU, IPO11 / Fold change vs veh, IPO11 / RFU, DFFB / Fold change vs veh, DFFB / RFU, FOXP1 / Fold change vs veh, FOXP1 / RFU, CARD8 / Fold change vs veh, CARD8 / RFU, STRN3 / Fold change vs veh, STRN3 / RFU, ADK / Fold change vs veh, ADK / RFU, RASSF2 / Fold change vs veh, RASSF2 / RFU, WIPF1 / Fold change vs veh, WIPF1 / RFU, LARP1B / Fold change vs veh, LARP1B / RFU, RASA1 / Fold change vs veh, RASA1 / RFU, RB1 / Fold change vs veh, RB1 / RFU, PPFIA1 / Fold change vs veh, PPFIA1 / RFU, MAT2A / Fold change vs veh, MAT2A / RFU, CCT5 / Fold change vs veh, CCT5 / RFU, WDR92 / Fold change vs veh, WDR92 / RFU, CUX1 / Fold change vs veh, CUX1 / RFU, TTC7A / Fold change vs veh, TTC7A / RFU, TMEM135 / Fold change vs veh, TMEM135 / RFU, DEPTOR / Fold change vs veh, DEPTOR / RFU, CPM / Fold change vs veh, CPM / RFU, DNAJB6 / Fold change vs veh, DNAJB6 / RFU, CACNA2D3 / Fold change vs veh, CACNA2D3 / RFU, DTX4 / Fold change vs veh, DTX4 / RFU, TFCP2 / Fold change vs veh, TFCP2 / RFU, GMCL1 /// GMCL1P1 / Fold change vs veh, GMCL1 /// GMCL1P1 / RFU, AEBP2 / Fold change vs veh, AEBP2 / RFU, SNHG1 /// SNORD22 /// SNORD25 /// SNORD26 /// SNORD27 /// SNORD28 /// SNORD29 /// SNORD31 / Fold change vs veh, SNHG1 /// SNORD22 /// SNORD25 /// SNORD26 /// SNORD27 /// SNORD28 /// SNORD29 /// SNORD31 / Fold change (Aza/veh), C12orf56 (ProbeSet 11735607_a_at) / Fold change (ACY-1035/veh), C12orf56 (ProbeSet 11735607_a_at) / Fold change (Aza/veh), FGFR1OP (ProbeSet 11751329_s_at) / Fold change (ACY-1035/veh), FGFR1OP (ProbeSet 11751329_s_at) / Fold change (Aza/veh), VPS36 (ProbeSet 11739960_a_at) / Fold change (ACY-1035/veh), VPS36 (ProbeSet 11739960_a_at) / RFU SYPL1 (11715823_x_at) / Fold change /veh SYPL1 (11715823_x_at) / RFU IGFBP7 (11715501_s_at) / Fold change /veh IGFBP7 (11715501_s_at) / RFU REEP3 (11722064_at) / Fold change /veh REEP3 (11722064_at) / RFU IGLL1 (11728026_x_at) / Fold change /veh IGLL1 (11728026_x_at): dose or concentration left out as unconfirmed. The following applies: MV-4-11 cells, 48 hours.

As to `Nc1ccc(-c2cccs2)cc1NC(=O)c1ccc2c(c1)cc(C1CC1)n2CCN1CCOCC1` [ACY-1035], the “RFU MAPK11 (11762145_a_at)” value is on record as 21.16 RFU.

For the origin of these results see paper PMC5218480 (PLoS ONE, 2017).
